Read-outs that look alike come from different tables or passages of the source.
Experiments:
IRAK4 enzyme = IRAK4 enzyme (Homo sapiens (Human), UniProt Q9NWZ3); test: biochemical; format: biochemical; conditions: IRAK4 enzyme, 500 μM ATP
TNFα = test: cells; format: cell-based, human; conditions: Homo sapiens, Monocyte, LPS-stimulated human monocytes, read-out: EC50 TNF

Sequence of IRAK4 enzyme (Q9NWZ3 whole entry): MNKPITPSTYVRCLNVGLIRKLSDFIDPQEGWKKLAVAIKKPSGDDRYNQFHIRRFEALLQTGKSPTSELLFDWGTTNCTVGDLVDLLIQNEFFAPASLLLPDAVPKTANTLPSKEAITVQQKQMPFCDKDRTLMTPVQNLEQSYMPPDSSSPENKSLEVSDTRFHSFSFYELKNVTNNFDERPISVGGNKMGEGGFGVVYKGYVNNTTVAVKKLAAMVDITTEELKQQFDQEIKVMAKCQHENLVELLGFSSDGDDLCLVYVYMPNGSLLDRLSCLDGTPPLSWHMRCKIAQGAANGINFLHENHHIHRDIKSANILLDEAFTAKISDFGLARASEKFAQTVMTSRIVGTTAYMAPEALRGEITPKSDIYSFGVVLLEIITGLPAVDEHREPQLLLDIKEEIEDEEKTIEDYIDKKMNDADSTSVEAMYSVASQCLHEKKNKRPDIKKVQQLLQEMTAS

SMILES | IC50 (IRAK4 enzyme; TR-FRET) [nM] | EC50 (TNFα; TNFα content) [nM] | IC50 (IRAK4 enzyme; TR-FRET (HTRF)) [nM] | EC50 (TNFα; TNFα by TR-FRET) [nM]
COC(=O)N[C@H]1CC[C@H](Nc2cc(-c3ccc4cc(C#N)cnn34)ncc2C(=O)NC[C@@H](F)C(C)(C)OC(C)=O)CC1 [Example 293, (R)-4-(6-(3-cyanopyrrolo[1,2-b]pyridazin-7-yl)-4-(((1r,4R)-4-((methoxycarbonyl)amino)cyclohexyl)amino)nicotinamido)-3-fluoro-2-methylbutan-2-yl acetate] | 1 | 49 |  | 
Cc1ncoc1[C@H]1CC[C@H](Nc2cc(-c3ccc4cc(C#N)cnn34)ncc2C(=O)NC[C@@H](F)C(C)(C)O)CC1 [Example 631, 6-(3-cyanopyrrolo[1,2-b]pyridazin-7-yl)-N-((R)-2-fluoro-3-hydroxy-3-methylbutyl)-4-(((1r,4R)-4-(4-methyloxazol-5-yl)cyclohexyl)amino) nicotinamide] |  | 21 | 2 | 
CC(C)(O)[C@H](F)CNC(=O)c1cnc(-c2ccc3cc(C#N)cnn23)cc1-c1ccc2cc(C#N)cnn12 [Example 693, (R)-4,6-bis(3-cyano-pyrrolo[1,2-b]pyridazin-7-yl)-N-(2-fluoro-3-hydroxy-3-methylbutyl)nicotinamide] |  | 821 | 35 | 
CNC(=O)CCNC(=O)c1cnc(-c2ccc3cc(C#N)cnn23)cc1NC12CCC(O)(CC1)CC2 [Example 803, 6-(3-cyanopyrrolo[1,2-b]pyridazin-7-yl)-4-((4-hydroxybicyclo[2.2.2]octan-1-yl)amino)-N-(3-(methylamino)-3-oxopropyl)nicotinamide] | 1 |  |  | 327
CC(C)Nc1cc(-c2ccc3cc(C#N)cnn23)ncc1C(=O)N[C@H]1CCC[C@@H](O)C1 [Example 190, 6-(3-cyanopyrrolo[1,2-b]pyridazin-7-yl)-N-((1S,3R)-3-hydroxycyclohexyl)-4-(isopropylamino) nicotinamide] | 8 | 209 |  | 
CC1(Nc2cc(-c3ccc4cc(C#N)cnn34)ncc2C(=O)NC[C@@H](F)C(C)(C)O)CC1 [Example 118, (R)-6-(3-cyanopyrrolo[1,2-b]pyridazin-7-yl)-N-(2-fluoro-3-hydroxy-3-methylbutyl)-4-((1-methylcyclopropyl)amino) nicotinamide] | < 1 | 25 |  | 
CC(C)(O)[C@H](F)CNC(=O)c1cnc(-c2ccc3cc(C#N)cnn23)cc1NC[C@H]1CCC(=O)N1 [Example 106, 6-(3-cyanopyrrolo[1,2-b]pyridazin-7-yl)-N-((R)-2-fluoro-3-hydroxy-3-methylbutyl)-4-((((R)-5-oxopyrrolidin-2-yl)methyl)amino) nicotinamide] | 3 | 1380 |  | 
CC(=O)N1CC[C@H]1CNc1cc(-c2ccc3cc(C#N)cnn23)ncc1C(=O)NC[C@@H](F)C(C)(C)O [Example 889, 4-((((S)-1-acetylazetidin-2-yl)methyl)amino)-6-(3-cyanopyrrolo[1,2-b]pyridazin-7-yl)-N-((R)-2-fluoro-3-hydroxy-3-methylbutyl)nicotinamide] | 9 |  |  | 436
CNC(=O)c1cnc(-c2ccc3cc(C#N)cnn23)cc1N[C@@H]1CCC[C@@H](C(=O)NC)C1 [Example 464, 6-(3-cyanopyrrolo[1,2-b]pyridazin-7-yl)-N-methyl-4-(((1R,3R)-3-(methylcarbamoyl)cyclohexyl)amino) nicotinamide] |  | 1110 | 23 | 
C=CC(=O)NC12CCC(Nc3cc(-c4ccc5cc(C#N)cnn45)ncc3C(=O)NC[C@@H](F)C(C)(C)O)(CC1)CC2 [Example 424, (R)-4-((4-acrylamidobicyclo[2.2.2]octan-1-yl)amino)-6-(3-cyanopyrrolo[1,2-b]pyridazin-7-yl)-N-(2-fluoro-3-hydroxy-3-methyl-butyl)nicotinamide] |  | 18 | 1 | 
CC(C)Nc1cc(-c2ccc3cc(C(N)=O)cnn23)ncc1C(=O)NCC1CCS(=O)(=O)C1 (stereo not shown) [Example 9, 7-(5-(((1,1-dioxidotetrahydrothiophen-3-yl)methyl)carbamoyl)-4-(isopropylamino)pyridin-2-yl)pyrrolo[1,2-b]pyridazine-3-carboxamide] | 16 | 5100 |  | 
[2H]C([2H])([2H])OC(=O)NC12CCC(Nc3cc(-c4ccc5cc(C#N)cnn45)ncc3C(=O)NC[C@@H](F)C(C)(C)O)(CC1)CC2 [Example 283, methyl-d3 (R)-(4-((2-(3-cyanopyrrolo[1,2-b]pyridazin-7-yl)-5-((2-fluoro-3-hydroxy-3-methylbutyl)carbamoyl)pyridin-4-yl)amino)bicyclo[2.2.2]octan-1-yl)carbamate] | 1 | 14 |  | 
CC(C)(O)[C@H](F)CNC(=O)c1cnc(-c2ccc3cc(C#N)cnn23)cc1NC[C@H]1CCN(CC(F)(F)F)C1 [Example 901, 6-(3-cyanopyrrolo[1,2-b]pyridazin-7-yl)-N-((R)-2-fluoro-3-hydroxy-3-methylbutyl)-4-((((R)-1-(2,2,2-trifluoroethyl)pyrrolidin-3-yl)methyl)amino)nicotinamide] | 3 |  |  | 126
CC(C)(O)[C@H](F)CNC(=O)c1cnc(-c2ccc3cc(C#N)cnn23)cc1NCCc1ccc(F)cc1 [Example 707, (R)-6-(3-cyanopyrrolo[1,2-b]pyridazin-7-yl)-N-(2-fluoro-3-hydroxy-3-methylbutyl)-4-((4-fluorophenethyl)amino) nicotinamide] |  | 42 | 1 | 
CC(C)(O)[C@H](F)CNC(=O)c1cnc(-c2ccc3cc(C#N)cnn23)cc1NC1COC1 [Example 54, (R)-6-(3-cyanopyrrolo[1,2-b]pyridazin-7-yl)-N-(2-fluoro-3-hydroxy-3-methylbutyl)-4-(oxetan-3-ylamino)nicotinamide] | < 1 | 26 |  | 
COC(=O)NC[C@H]1C[C@H](Nc2cc(-c3ccc4cc(C#N)cnn34)ncc2C(=O)NCC#N)C1 [Example 613, methyl (((1r,3r)-3-((5-((cyanomethyl)carbamoyl)-2-(3-cyanopyrrolo[1,2-b]pyridazin-7-yl)pyridin-4-yl)amino)cyclobutyl)methyl)carbamate] |  | 15 | < 1 | 
CC(C)Nc1cc(-c2ccc3cc(C#N)cnn23)ncc1C(=O)NCCC(O)C(F)(F)F (stereo not shown) [Example 712, 6-(3-cyanopyrrolo[1,2-b]pyridazin-7-yl)-4-(isopropyl-amino)-N-(4,4,4-trifluoro-3-hydroxybutyl)nicotinamide] |  | 47 | < 1 | 
CC(C)(O)[C@H](F)CNC(=O)c1cnc(-c2ccc3cc(C#N)cnn23)cc1N[C@H]1CCOC1 [Example 195, 6-(3-cyanopyrrolo[1,2-b]pyridazin-7-yl)-N-((R)-2-fluoro-3-hydroxy-3-methylbutyl)-4-(((S)-tetrahydrofuran-3-yl)amino)nicotinamide] | < 1 | 37 |  | 
CC(C)(O)[C@H](F)CNC(=O)c1cnc(-c2ccc3cc(C#N)cnn23)cc1Nc1cnn(-c2ccccn2)c1 [Example 755, (R)-6-(3-cyanopyrrolo[1,2-b]pyridazin-7-yl)-N-(2-fluoro-3-hydroxy-3-methylbutyl)-4-((1-(pyridin-2-yl)-1H-pyrazol-4-yl)amino)nicotinamide] |  | 16 | 1 | 
CC(C)(O)[C@H](F)CNC(=O)c1cnc(-c2ccc3cc(C#N)cnn23)cc1Nc1ccc2c(c1)NC(=O)C2 [Example 573, (R)-6-(3-cyanopyrrolo[1,2-b]pyridazin-7-yl)-N-(2-fluoro-3-hydroxy-3-methyl-butyl)-4-((2-oxoindolin-6-yl)amino)nicotinamide] |  | 24 | < 1 | 

Source: patent US10336762B2 (priority 2017, dated 2019)
